Experimental data from US8815933B2 (EnVivo Pharmaceuticals, Inc., priority 2008, dated 2014).

Tests used:
[1] = maximum plasma concentration in human SAD/MAD clinical trials; type: in vivo; settings: for Cmax: plasma, oral
Method: Multiple ascending dose (MAD) human clinical trials were conducted.
These values are 35-2000 times lower than would have anticipated if efficacy was to be achieved when the free plasma concentration reached the Ki or the ECref concentrations. […] These values are 9.4-667 times lower than expected.

half-life in dog = settings: in vivo, iv
[2] = free fraction of drug in rat plasma
Method: (§1) The free drug concentration in plasma ([free drug]plasma) is determined by measuring the total drug concentration in the plasma ([total drug]plasma) and the free fraction of the drug, i.e., the fraction of the drug that is not bound to plasma protein (fuplasma):[free drug]plasma=[total drug]plasmaX fuplasma. The total plasma drug concentration and the fraction that binds to plasma protein can both be measured using techniques known to those of skill in the art.

[3] = half-life in humans (clinical trials); type: in vivo, Human; settings: for half-life: plasma, 1 mg
Text: The unexpectedly long half-life in humans has several advantages. It allows for once a day dosing. The drug will also have a very small dynamic plasma range over the course of a day (about 15-20%). Thus, if a patient misses a daily dose, the plasma level and the consequent brain level will not be altered by a great degree. This means that the beneficial effects of the drug will be less dependent upon careful adherence to a specific dosing scheme. Third, long half-life and slow elimination also mean that the final dose will be lower than expected. This readily observed by looking at the Cmax values on Day 1 versus Day 21. The Cmax values on Day 21 are about 3.6-4.2 times higher than the Day 1 values. This ratio will translate into a dose that is 3.6-4.2 times lower than would normally be expected due to this favorable accumulation.

[4] = free fraction of drug in dog plasma
Method: as §1

half-life in rat = settings: in vivo, iv, 1 mg/kg
[5] = free fraction of drug in human plasma
Method: as §1

[6] = tested on: patients suffering from schizophrenia; assay: P50 sensory gating evoked response in schizophrenia patients; type: in vivo, Human
Method: The test described above was used to study the effect of the test compound on cognition in patients suffering from schizophrenia. Prior to testing, the patients were dosed with: 1 mg of the test compound daily, 0.3 mg of the test compound daily or were administered a placebo for 20 days. Subjects were tested as described below. P50 waves were elicited by clicks, 1 msec in duration, grouped in pairs in the classic S1-S2 sequence and presented through earpieces inserted into the auditory canals. Click intensity was adjusted individually to 50 dB above the hearing threshold. The offset-to-onset time from S1 to S2 was fixed at 500 msec. The offset-to-onset time between click pairs was varied from 7-11 sec. […] P50 response amplitude was calculated as the voltage difference between the P50 peak and the preceding negative trough. The P50 gating ratio was then calculated after (Olincy et al., 2006) as the amplitude of the P50 response to the second (test) stimulus divided by the amplitude of the P50 response to the first (conditioning) stimulus. […] The P50 amplitude difference (Fuerst et al., 2007) was also measured. […] Unfortunately, in the case of the P50/[…] gating study, it was necessary to discard several patients and post-treatment assignment time points from the analysis because, in those instances, a P50 waveform was not identifiable and therefore could not be measured. […]

[7] = tested on: patients suffering from schizophrenia; assay: MMN and P300 evoked responses (oddball sequence) in schizophrenia patients; type: in vivo, Human
Method: The test described above was used to study the effect of the test compound on cognition in patients suffering from schizophrenia. Prior to testing, the patients were dosed with: 1 mg of the test compound daily, 0.3 mg of the test compound daily or were administered a placebo for 20 days. Subjects were tested as described below.
The MMN and P300 components were elicited during the so-called oddball sequence. The stimulus sequence was a series of lower (500 Hz) and higher (1000 Hz) pitched pure tones presented at a rate of 1 tone per 0.6 sec. The tones were 50 msec in duration, 50 dB above hearing level, and randomly interspersed. The higher pitched tone was the oddball event. Across the series of 600 tones, it occurred at a probability of 0.2. The other tone occurred at the complementary probability of 0.8. Patients were instructed to ignore the tones and instead attend to a magazine held in the lap.
During the task, EEG and EOG activity were digitized at a rate of 500 Hz per channel for 50 msec preceding and 500 msec following stimulus onset. Trials contaminated by eyeblinks or eye movements were removed. An off-line program digitally filtered (bandpass=0.1-30 Hz, 12 db roll-off) responses to the rare and frequent events and constructed averaged event related responses for each electrode. At the FCz electrode, the MMN was measured by an automated algorithm that computed the summed amplitude, relative to the prestimulus baseline, over a 100-200 msec time window following the onsets of the rare (oddball) and frequent tones. MMN was then recalculated as the voltage difference between these responses. P300 amplitude was measured at the Pz electrode site as the peak amplitude between 250 and 500 msec following stimulus onset.
MMN and P300 amplitude reflect activation of multiple precortical and cortical pathways sensitive to stimulus novelty, short term memory, and attention. MMN was calculated as the voltage difference over 100-200 msec post-stimulus onset between the responses to the rare and frequent stimuli. […] P300 is not entirely independent of MMN. P300 was calculated as the peak amplitude relative to the average voltage of the waveform during the 50 msec prestimulus period. A more positive P300 response is indicative of improved cognitive function. P300 is maximal in amplitude when the eliciting stimulus is both rare and task relevant (i.e., attended). In the present study, the rare stimulus was not task relevant. In fact, the patient was instructed to perform no task and to ignore the stimuli. In the present study, therefore, P300 amplitude is very small in comparison to amplitudes recorded under active task conditions. The present P300 component is more similar to the small, frontally-generated P300a described by Knight and colleagues than the large, parietally-generated P300b described in most studies of attentional dysfunction in schizophrenia.
In the analysis of P50 and N100 the baseline value was the covariate and all values obtained during the treatment period were averaged together. Data loss from unidentifiable MMN and P300 components was minimal. These analyses were conducted upon data obtained from n=4 patients treated with placebo, n=7 patients treated with 0.3 mg of the test compound, and n=8 patients treated with 1.0 mg of the test compound.

[8] = maximum plasma concentration in human SAD/MAD clinical trials; type: in vivo; settings: SAD, Day 1, 3.5 mg
normal subjects [9] = assay: CogState battery in MAD studies; type: in vivo, Human
Method: The impact of the test compound on cognition in normal subjects was assessed as described below. In these studies, subjects were treated with the test compound dissolved in cranberry juice. In the MAD (Multiple Ascending Dose) studies cognition was assessed using tests from the CogState battery (cogstate.com). […] The CogState battery is a proprietary computerized cognitive battery of tests measure various cognitive domains including: attention, identification capability, working memory, visual memory, and executive function. […] The magnitude of the effects were, in many cases, significant with effect sizes being >0.4 (a threshold effect size which is commonly accepted as having clinical significance).

normal subjects [10] = assay: Digit Symbol Substitution Test (DSST) in SAD study; type: in vivo, Human; settings: daily dose as low as 1 mg
Method: The impact of the test compound on cognition in normal subjects was assessed as described below. In these studies, subjects were treated with the test compound dissolved in cranberry juice.
The impact of the test compound on cognition in normal subjects was assessed in a SAD (Single Ascending Dose) study with the Digit Symbol Substitution Test (DSST). […] The positive effects of the test compound in the DSST indicate a beneficial effect on working memory and executive function.

O=C(N[C@H]1CN2CCC1CC2)c1cc2cccc(Cl)c2s1
dynamic plasma range over the course of a day ([1]; human, once a day dosing): 15-20%
half-life (half-life in dog; 0.5 mg/kg): 323 min
half-life (half-life in dog; 3 mg/kg): 780 min
Rat fuplasma [2]: 0.112
half-life ([3]; human, oral, read-out: observed half-life in humans (converted)): 2.5 days
half-life ([3]; po, Human, p.o., read-out: t1/2): 2.09 to 2.92 days
human half-life suggested by initial allometric scaling ([3]; scaled from rat and dog half-life): about 8 hours
Dog fuplasma [4]: 0.107
half-life (half-life in rat): 166 min
Human fuplasma [5]: 0.129

Cl.O=C(N[C@H]1CN2CCC1CC2)c1cc2cccc(Cl)c2s1
maximum free plasma concentration ([1]; 0.3 mg dose, human): 0.073 to 0.283 nM
free plasma concentration ([1]; 1.0 mg doses, human): 0.237 to 1.06 nM
Cmax free ([1]; MAD1, Day 1, 1 mg): 0.252 nM
Cmax total ([1]; MAD1, Day 1, 1 mg): 1.96 nM
Cmax free ([1]; MAD1, Day 7, 1 mg): 0.853 nM
Cmax total ([1]; MAD1, Day 7, 1 mg): 6.61 nM
Cmax free ([1]; MAD1, Day 14, 1 mg): 1.06 nM
Cmax total ([1]; MAD1, Day 14, 1 mg): 8.23 nM
Cmax free ([1]; MAD2, Day 1, 0.1 mg): 0.022 nM
Cmax total ([1]; MAD2, Day 1, 0.1 mg): 0.172 nM
Cmax free ([1]; MAD2, Day 1, 1 mg): 0.251 nM
Cmax total ([1]; MAD2, Day 1, 1 mg): 1.943 nM
Cmax free ([1]; MAD2, Day 21, 0.1 mg): 0.093 nM
Cmax total ([1]; MAD2, Day 21, 0.1 mg): 0.724 nM
Cmax free ([1]; MAD2, Day 21, 1 mg): 0.974 nM
Cmax total ([1]; MAD2, Day 21, 1 mg): 7.547 nM
Cmax free ([1]; MAD3, Day 1, 0.3 mg): 0.073 nM
Cmax total ([1]; MAD3, Day 1, 0.3 mg): 0.568 nM
Cmax free ([1]; MAD3, Day 1, 1 mg): 0.221 nM
Cmax total ([1]; MAD3, Day 1, 1 mg): 1.71 nM
Cmax free ([1]; MAD3, Day 21, 0.3 mg): 0.283 nM
Cmax total ([1]; MAD3, Day 21, 0.3 mg): 2.195 nM
Cmax free ([1]; MAD3, Day 21, 1 mg): 0.800 nM
Cmax total ([1]; MAD3, Day 21, 1 mg): 6.20 nM
Cmax free ([1]; SAD, Day 1, 1 mg): 0.237 nM
Cmax total ([1]; SAD, Day 1, 1 mg): 1.84 nM
Cmax total ([1]; SAD, Day 1, 3.5 mg): 6.42 nM
Cmax ([1]; human, 0.1 mg, MAD2, Day 1, 0.1 mg): 0.055 ng/mL
Cmax ([1]; human, 0.1 mg, MAD2, Day 21, 0.1 mg): 0.232 ng/mL
Cmax ([1]; human, 0.3 mg, MAD3, Day 1, 0.3 mg): 0.182 ng/mL
Cmax ([1]; human, 0.3 mg, MAD3, Day 21, 0.3 mg): 0.704 ng/mL
Cmax ([1]; human, 1 mg, MAD1, Day 1, 1 mg): 0.63 ng/mL
Cmax ([1]; human, 1 mg, MAD1, Day 7, 1 mg): 2.12 ng/mL
Cmax ([1]; human, 1 mg, MAD1, Day 14, 1 mg): 2.64 ng/mL
Cmax ([1]; human, 1 mg, MAD2, Day 1, 1 mg): 0.623 ng/mL
Cmax ([1]; human, 1 mg, MAD2, Day 21, 1 mg): 2.42 ng/mL
Cmax ([1]; human, 1 mg, MAD3, Day 1, 1 mg): 0.547 ng/mL
Cmax ([1]; human, 1 mg, MAD3, Day 21, 1 mg): 1.99 ng/mL
Cmax ([1]; human, 1 mg, SAD, Day 1, 1 mg): 0.59 ng/mL
Cmax ([1]; human, 3.5 mg, SAD, Day 1, 3.5 mg): 2.06 ng/mL
P50 amplitude difference (C-T), baseline-adjusted ([6]; 1.0 mg daily for 20 days vs placebo, FIG. 1B, F=3.97, P=0.07): normalization at the high dose
effects on the P50 component of the evoked response ([6]; limited to 1.0 mg dose, p=0.1): technically not significant
MMN component vs placebo ([7]; 0.3 mg daily for 20 days): significantly (p<0.05) larger
P300 component vs placebo ([7]; 0.3 mg daily for 20 days): significantly (p<0.05) larger
MMN component vs placebo ([7]; 1.0 mg daily for 20 days): significantly (p<0.05) larger
P300 component vs placebo ([7]; 1.0 mg daily for 20 days): significantly (p<0.05) larger
MMN amplitude ([7]; 0.3 and 1.0 mg daily, dose-related, F=4.96, P=0.02, FIG. 3A): increased
P300 amplitude ([7]; 0.3 and 1.0 mg daily, dose-related, F=6.88, P=0.008, FIG. 3B): increased
Cmax free [8]: 0.828 nM
effect sizes (normal subjects [9]; CogState, in many cases): > 0.4
effect on attention (normal subjects [9]; CogState, normal subjects): without having a stimulatory effect on attention
impact on visual motor skills, learning, executive function, and delayed memory (normal subjects [9]; normal subjects, MAD studies, CogState): positive impact
cognition in CogState battery (normal subjects [9]; normal subjects, MAD studies, daily dose as low as 1 mg): pro-cognitive effects
cognition in Digit Symbol Substitution Test (normal subjects [10]): pro-cognitive effects
